Source: patent publication US6924251B1, “Substituted benzoylcyclohexandiones” (Bayer Aktiengesellschaft, priority 1998, dated 2005)

Assays:
Abutilon = experiment: Pre-emergence test/greenhouse; assay type: in vivo; conditions: after three weeks
Experimental: (§1) • Solvent: 5 parts by weight of acetone • Emulsifier: 1 part by weight of alkylaryl polyglycol ether
(§2) To produce a suitable preparation of active compound, 1 part by weight of active compound is mixed with the stated amount of solvent, the stated amount of emulsifier is added and the concentrate is diluted with water to the desired concentration.
(§3) Seeds of the test plants are sown in normal soil. After approximately 24 hours, the soil is sprayed with the preparation of active compound such that the particular amount of active compound desired is applied per unit area. The concentration of the spray liquor is chosen so that the particular amount of active compound desired is applied in 1000 liters of water per hectare.
(§4) After three weeks, the degree of damage to the plants is assesssed in % damage in comparison to the development of the untreated control.

Cyperus = experiment: Pre-emergence test/greenhouse; assay type: in vivo; conditions: after three weeks
Experimental: as §1, §2, §3, §4

[1] = logP determination by HPLC (reversed-phase C18), EEC Directive 79/831 Annex V.A8; conditions: reversed-phase C18 HPLC column
weeds [2] = experiment: Pre-emergence test, activity against weeds; assay type: in vivo
Experimental: as §1, §2, §3, §4

Maize [3] = experiment: Pre-emergence test/greenhouse; assay type: in vivo; conditions: 500 g ai./ha, after three weeks
Experimental: as §1, §2, §3, §4

Sinapis = experiment: Post emergence test/greenhouse; assay type: in vivo; conditions: after three weeks
Experimental: as §1, §2
(§5) Test plants which have a height of 5-15 cm are sprayed with the preparation of active compound in such a way that the particular amounts of active compound desired are applied per unit area. The concentration of the spray liquor is chosen so that the particular amounts of active compound desired are applied in 1000 1 of water/ha.
as §4

Maize [4] = experiment: Post emergence test/greenhouse; assay type: in vivo; conditions: after three weeks
Experimental: as §1, §2, §5, §4

Amaranthus = experiment: Post emergence test/greenhouse; assay type: in vivo; conditions: after three weeks
Experimental: as §1, §2, §5, §4

weeds [5] = experiment: Post-emergence test, activity against weeds; assay type: in vivo
Experimental: as §1, §2, §5, §4

With `COC(=O)c1ccc(Cl)c(Cn2nc(C(F)(F)F)n(C)c2=O)c1Cl` [IV-2, 4-methyl-5-trifluoromethyl-2-(2,6-dichloro-3-methoxycarbonyl-benzyl)-2,4-dihydro-3H-1.2.4-triazol-3-one] the melting point was 109 °C.
With `CCOc1nn(Cc2cc(C(F)(F)F)ccc2C(=O)C2C(=O)CCCC2=O)c(=O)n1C` [compound 1, 5-ethoxy-4-methyl-2-[2-(2,6-dioxo-cyclohexyl-carbonyl)-5-trifluoromethyl-benzyl]-2,4-dihydro-3H-1,2,4-triazol-3-one] the “% damage Abutilon” value (Abutilon; 1000 g ai./ha) was 100%, the “% damage Cyperus” value (Cyperus; 1000 g ai./ha) was 100% and the chromatographic logP ([1]; pH 2) was 2.7. The activity against weeds (weeds [2]) was “strong activity”.
In the case of `Cn1c(C(F)(F)F)nn(-c2ccc(C(=O)C3C(=O)CCCC3=O)c(Cl)c2)c1=O` [compound 2, 2-[4-(2,6-dioxocyclohexylcarbonyl)-3-chloro-phenyl]4-methyl-5-trifluoromethyl-2,4-dihydro-3H-1,2,4-triazol-3′-one], the melting point is reported as 182 °C and the chromatographic logP ([1]; pH 2) is reported as 3.13.
With `CCOn1c(CC)nn(Cc2cc(Br)ccc2C(=O)C2C(=O)CCCC2=O)c1=O` [compound 10] the “% damage Maize” value (Maize [3]) was 0%, the “% damage Abutilon” value (Abutilon; 500 g ai./ha) was 90% and the “% damage Cyperus” value (Cyperus; 500 g ai./ha) was 100%. The “% damage Sinapis” value (Sinapis; 500 g ai./ha) was 80%, the “% damage Maize” value (Maize [4]; 500 g ai./ha) was 20% and the “% damage Amaranthus” value (Amaranthus; 500 g ai./ha) was 95%. The chromatographic logP [1] was 2.68, the activity against weeds (weeds [2]) was “strong activity” and the activity against weeds (weeds [5]) was “strong activity”.
With `CCOc1nn(Cc2cc(Br)ccc2C(=O)C2C(=O)CCCC2=O)c(=O)n1C` [compound 15] the “% damage Sinapis” value (Sinapis; 1000 g ai./ha) was 80%, the “% damage Maize” value (Maize [4]; 1000 g ai./ha) was 0% and the “% damage Amaranthus” value (Amaranthus; 1000 g ai./ha) was 90%. The activity against weeds (weeds [5]) was “strong activity”.
